Test results as given in patent publication US12606572B2, “Substituted heterocycles and uses thereof” (Kumquat Biosciences Inc., priority 2023, dated 2026).

Key:
[1] = target: T1, KRAS WT (Homo sapiens, UniProt P01116); assay: HTRF assay, interaction of GST-tagged K-Ras with His-tagged hSOS1 (KRAS wildtype); assay type: biochemical; settings: <500 nM, read-out: Inhibition of KRAS WT (IC50)
T1 construct: made in house; host or cells: E. coli BL21 (DE3)
Excerpt: (§1) This assay can be also used to assess a selective inhibition or reduction of signaling output of a mutant Ras protein relative to a wildtype, or relative to a different mutant Ras protein. For example, the equilibrium interaction of wildtype KRAS or K-Ras mutant (e.g., wildtype or a mutant thereof) with SOS1 (e.g., hSOS1) can be assessed as a proxy or an indication for the ability of a subject compound to bind and inhibit Ras protein. The HTRF assay detects from (i) a fluorescence resonance energy transfer (FRET) donor (e.g., antiGST-Europium) that is bound to GST-tagged K-Ras mutant to (ii) a FRET acceptor (e.g., anti-6His-XL665) bound to a His-tagged hSOS1.
(§2) The assay buffer can contain ˜5 mM HEPES pH 7.4, ˜150 mM NaCl, ˜1 mM DTT, 0.05% BSA and 0.0025% (v/v) Igepal. A Ras working solution is prepared in an assay buffer containing typically a suitable amount of the protein construct (e.g., GST-tagged K-Ras mutant) and the FRET donor (e.g., antiGST-Eu(K) from Cisbio, France). A SOS1 working solution is prepared in an assay buffer containing suitable amount of the protein construct (e.g., His-hSOS1) and the FRET acceptor (e.g., anti-6His-XL665 from Cisbio, France). A suitable amount of the protein construct will depend on the range of activity or range of IC50 values being detected or under investigation. For detecting an IC50 within a range of 500 nM, the protein constructs of the same range of molarity can be utilized.
(§3) A fixed volume of DMSO with or without test compound is transferred into a 384-well plate. Ras working solution is added to all wells of the test plate. SOS1 working solution is added to all wells except for those that are subsequently filled with inhibitor control solution. Upon incubation for about 10 minutes or longer, the fluorescence is measured with a M1000Pro plate reader (Tecan) using HTRF detection (excitation 337 nm, emission 1: 620 nm, emission 2: 665 nm). Compounds are tested in duplicate at different concentrations (for example, 10 μM, 2.5 μM, 0.63 μM, 0.16 μM, 0.04 μM, 0.01 μM test compound). The ratiometric data (i.e., emission 2 divided by emission 1) is used to calculate IC50 values against Ras using GraphPad Prism (GraphPad software). Signaling output measured in terms of IC50 values can be obtained and a ratio of IC50 against one mutant relative to another mutant can be calculated. For instance, a selective reduction of K-Ras G12S signaling output can be evidenced by a ratio greater than one. In particular, a selective reduction of K-Ras G12S signaling relative to K-Ras WT signaling is evidenced if the ratio of IC50 (against K-Ras WT) to IC50 (against K-Ras G12S) is greater than 1.

[2] = target: T2, KRAS G12S (Homo sapiens, UniProt P01116, G12S); assay: HTRF assay, interaction of GST-tagged K-Ras with His-tagged hSOS1 (KRAS G12S); assay type: biochemical; settings: <500 nM, read-out: Inhibition of KRAS G12S (IC50)
T2 construct: made in house; host or cells: E. coli BL21 (DE3)
Excerpt: as §1, §2, §3

T1 sequence (P01116 1-188 isoform P01116-2): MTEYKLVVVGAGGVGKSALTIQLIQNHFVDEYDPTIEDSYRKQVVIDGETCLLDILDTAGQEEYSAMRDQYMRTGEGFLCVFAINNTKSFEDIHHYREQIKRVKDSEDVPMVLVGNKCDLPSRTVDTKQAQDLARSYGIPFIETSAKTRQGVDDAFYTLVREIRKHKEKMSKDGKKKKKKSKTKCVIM
T2 sequence (P01116 1-188 isoform P01116-2 G12S): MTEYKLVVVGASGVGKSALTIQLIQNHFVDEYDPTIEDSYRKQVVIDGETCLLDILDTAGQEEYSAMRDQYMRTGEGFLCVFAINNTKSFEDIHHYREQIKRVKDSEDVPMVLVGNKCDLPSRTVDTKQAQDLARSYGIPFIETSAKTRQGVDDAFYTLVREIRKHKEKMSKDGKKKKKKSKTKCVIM

Cc1cn(C(=O)N2CC[C@@H](N3C[C@H](C)Oc4cc(-c5cc(N)c(F)c(C)c5C(F)(F)F)c(F)c5nc(OC[C@@]67CCCN6C[C@H](F)C7)nc3c45)[C@H]2C)c(C)n1 [Compound 415, ((2R,3R)-3-((S)-9-(5-amino-4-fluoro-3-methyl-2-(trifluoromethyl)phenyl)-10-fluoro-2-(((2R,7aS)-2-fluorotetrahydro-1H-pyrrolizin-7a(5H)-yl)methoxy)-6-methyl-5,6-dihydro-4H-[1,4]oxazepino [5,6,7-de]quinazolin-4-yl)-2-methylpyrrolidin-1-yl)(2,4-dimethyl-1H-imidazol-1-yl)methanone]
IC50 [1]: < 500 nM

CC(CN(C)C(=O)n1ccnc1)N1c2nc(OC[C@@]34CCCN3C[C@H](F)C4)nc3c(F)c(-c4ccc(F)c5sc(N)c(C#N)c45)c(Cl)c(c23)OC[C@@H]1[C@H](C)O (stereo partly drawn) [Compound 451, N-(2-((5R)-9-(2-amino-3-cyano-7-fluorobenzo[b]thiophen-4-yl)-8-chloro-10-fluoro-2-(((2R,7aS)-2-fluorotetrahydro-1H-pyrrolizin-7a(5H)-yl)methoxy)-5-((S)-1-hydroxyethyl)-5,6-dihydro-4H-[1,4]oxazepino [5,6,7-de]quinazolin-4-yl)propyl)-N-methyl-1H-imidazole-1-carboxamide]
IC50 [2]: < 500 nM

C[C@H]1COc2c(Cl)c(-c3ccc(F)c4sc(N)c(C#N)c34)c(F)c3nc(OC[C@@]45CCCN4C[C@H](F)C5)nc(c23)N1C[C@@H]1CN(C(=O)n2ccnc2)[C@@H]1C1(C)CC1 (single isomer, unassigned) [Compound 473]
IC50 [1]: < 500 nM

CN1[C@H](C2CC2)[C@@H]1C(=O)N1CC(CN2CCOc3c(Cl)c(-c4ccc(F)c5sc(N)c(C#N)c45)c(F)c4nc(OC[C@@]56CCCN5C[C@H](F)C6)nc2c34)C1 (stereo partly drawn) [Compound 460, 2-amino-4-(8-chloro-4-((1-((2R,3R)-3-cyclopropyl-1-methylaziridine-2-carbonyl)azetidin-3-yl)methyl)-10-fluoro-2-(((2R,7aS)-2-fluorotetrahydro-1H-pyrrolizin-7a(5H)-yl)methoxy)-5,6-dihydro-4H-[1,4]oxazepino [5,6,7-de]quinazolin-9-yl)-7-fluorobenzo[b]thiophene-3-carbonitrile]
IC50 [1]: < 500 nM

N#Cc1cn(C(=O)N2CC(CN3CCOc4c(Cl)c(-c5ccc(F)c6sc(N)c(C#N)c56)c(F)c5nc(OC[C@@]67CCCN6C[C@H](F)C7)nc3c45)C2)cn1 [Compound 436, 1-(3-((9-(2-amino-3-cyano-7-fluorobenzo[b]thiophen-4-yl)-8-chloro-10-fluoro-2-(((2R,7aS)-2-fluorotetrahydro-1H-pyrrolizin-7a(5H)-yl)methoxy)-5,6-dihydro-4H-[1,4]oxazepino [5,6,7-de]quinazolin-4-yl)methyl)azetidine-1-carbonyl)-1H-imidazole-4-carbonitrile]
IC50 [2]: < 500 nM

C[C@H](O)[C@H]1COc2c(Cl)c(-c3ccc(F)c4sc(N)c(C#N)c34)c(F)c3nc(OC[C@@]45CCCN4C[C@H](F)C5)nc(c23)N1C1CC(CN(C)C(=O)n2ccnc2)C1 (stereo partly drawn) [Compound 482, N-((3-((5R)-9-(2-amino-3-cyano-7-fluorobenzo[b]thiophen-4-yl)-8-chloro-10-fluoro-2-(((2R,7aS)-2-fluorotetrahydro-1H-pyrrolizin-7a(5H)-yl)methoxy)-5-((S)-1-hydroxyethyl)-5,6-dihydro-4H-[1,4]oxazepino [5,6,7-de]quinazolin-4-yl)cyclobutyl)methyl)-N-methyl-1H-imidazole-1-carboxamide]
IC50 [1]: < 500 nM

CC(CN(C)C(=O)n1ccnc1)N1c2nc(OC[C@@]34CCCN3C[C@H](F)C4)nc3c(F)c(-c4ccc(F)c5sc(N)c(C#N)c45)c(Cl)c(c23)OC[C@@H]1[C@H](C)O (stereo partly drawn) [Compound 467, N-(2-((5R)-9-(2-amino-3-cyano-7-fluorobenzo[b]thiophen-4-yl)-8-chloro-10-fluoro-2-(((2R,7aS)-2-fluorotetrahydro-1H-pyrrolizin-7a(5H)-yl)methoxy)-5-((S)-1-hydroxyethyl)-5,6-dihydro-4H-[1,4]oxazepino[5,6,7-de]quinazolin-4-yl)propyl)-N-methyl-1H-imidazole-1-carboxamide]
IC50 [1]: < 500 nM

C[C@H]1COc2c(Cl)c(-c3ccc(F)c4sc(N)c(C#N)c34)c(F)c3nc(OC[C@@]45CCCN4C[C@H](F)C5)nc(c23)N1C[C@@H]1CN(C(=O)n2ccnc2)[C@@H]1C1(C)CC1 (single isomer, unassigned) [Compound 421]
IC50 [2]: < 500 nM

CC1([C@@H]2[C@H](CN3CCOc4c(Cl)c(-c5ccc(F)c6sc(N)c(C#N)c56)c(F)c5nc(OC[C@@]67CCCN6C[C@H](F)C7)nc3c45)CN2C(=O)n2ccnc2)CC1 [Compound 486, 4-(4-(((2S,3R)-1-(1H-imidazole-1-carbonyl)-2-(1-methylcyclopropyl)azetidin-3-yl)methyl)-8-chloro-10-fluoro-2-(((2R,7aS)-2-fluorotetrahydro-1H-pyrrolizin-7a(5H)-yl)methoxy)-5,6-dihydro-4H-[1,4]oxazepino [5,6,7-de]quinazolin-9-yl)-2-amino-7-fluorobenzo[b] thiophene-3-carbonitrile]
IC50 [2]: < 500 nM

N#Cc1cn(C(=O)N2CC(CN3CCOc4c(Cl)c(-c5ccc(F)c6sc(N)c(C#N)c56)c(F)c5nc(OC[C@@]67CCCN6C[C@H](F)C7)nc3c45)C2)cn1 [Compound 478, 1-(3-((9-(2-amino-3-cyano-7-fluorobenzo[b]thiophen-4-yl)-8-chloro-10-fluoro-2-(((2R,7aS)-2-fluorotetrahydro-1H-pyrrolizin-7a(5H)-yl)methoxy)-5,6-dihydro-4H-[1,4]oxazepino[5,6,7-de]quinazolin-4-yl)methyl)azetidine-1-carbonyl)-1H-imidazole-4-carbonitrile]
IC50 [1]: < 500 nM

CN1[C@H](C2CC2)[C@@H]1C(=O)N1CC(CN2CCOc3c(Cl)c(-c4ccc(F)c5sc(N)c(C#N)c45)c(F)c4nc(OC[C@@]56CCCN5C[C@H](F)C6)nc2c34)C1 (stereo partly drawn) [Compound 440, 2-amino-4-(8-chloro-4-((1-((2R,3R)-3-cyclopropyl-1-methylaziridine-2-carbonyl)azetidin-3-yl)methyl)-10-fluoro-2-(((2R,7aS)-2-fluorotetrahydro-1H-pyrrolizin-7a (5H)-yl)methoxy)-5,6-dihydro-4H-[1,4]oxazepino[5,6,7-de]quinazolin-9-yl)-7-fluorobenzo[b]thiophene-3-carbonitrile]
IC50 [2]: < 500 nM

CC1([C@@H]2[C@H](CN3CCOc4c(Cl)c(-c5ccc(F)c6sc(N)c(C#N)c56)c(F)c5nc(OC[C@@]67CCCN6C[C@H](F)C7)nc3c45)CN2C(=O)n2ccnc2)CC1 [Compound 485, 4-(4-(((2S,3R)-1-(1H-imidazole-1-carbonyl)-2-(1-methylcyclopropyl)azetidin-3-yl)methyl)-8-chloro-10-fluoro-2-(((2R,7aS)-2-fluorotetrahydro-1H-pyrrolizin-7a(5H)-yl)methoxy)-5,6-dihydro-4H-[1,4]oxazepino [5,6,7-de]quinazolin-9-yl)-2-amino-7-fluorobenzo[b] thiophene-3-carbonitrile]
IC50 [1]: < 500 nM

C[C@H](O)[C@H]1COc2c(Cl)c(-c3ccc(F)c4sc(N)c(C#N)c34)c(F)c3nc(OC[C@@]45CCCN4C[C@H](F)C5)nc(c23)N1C1CC(CN(C)C(=O)n2ccnc2)C1 (stereo partly drawn) [Compound 401, N-((3-((5R)-9-(2-amino-3-cyano-7-fluorobenzo[b]thiophen-4-yl)-8-chloro-10-fluoro-2-(((2R,7aS)-2-fluorotetrahydro-1H-pyrrolizin-7a(5H)-yl)methoxy)-5-((S)-1-hydroxyethyl)-5,6-dihydro-4H-[1,4]oxazepino[5,6,7-de]quinazolin-4-yl)cyclobutyl)methyl)-N-methyl-1H-imidazole-1-carboxamide]
IC50 [2]: < 500 nM
